Results on seven compounds are retold here after paper PMC11741150, “Synthesis and In Vitro Antileishmanial Efficacy of Novel Ethylene Glycol Analogues of Benzothiadiazine‐1,1‐dioxide” (Chemistry & Biodiversity, 2024).

“And” between values parts separate entries of the source, which are not always exact repeats. Identical values can stand only once.

One data set concerns Vero cells. Nature of the data set: Cytotoxicity resazurin assay. The format is cell-based. The settings on record: Chlorocebus sabaeus, 48 hours, ±standard deviation, maximum concentration 2 mM. The protocol:
The cytotoxicity of the synthesised compounds was evaluated using the resazurin assay. The assay involves live cells converting oxidized blue resazurin dye to pink, highly fluorescent resorufin through irreversible enzymatic reduction.[44] This non‐toxic reagent is a useful instrument for determining drug toxicity and cell growth.
Dulbecco's modified Eagle's medium (DMEM) with high glucose (Separations) supplemented with 1 % L‐glutamine, non‐essential amino acids, and penicillin‐streptomycin (Sigma Aldrich), and 10 % fetal bovine serum (Thermofisher Scientific) was used to cultivate Vero cells. The cells were kept at 37 °C and 5 % CO2 in a humidified environment. For the assay, 96 well plates were prepared by pipetting 100 μL of cell suspension (60 000 cells/mL) per well and incubating the plates for 24 hours. The cells were then treated with seven two‐fold concentration dilutions of: (1) 1 μM emetine dihydrochloride (Sigma Aldrich) solution (positive control); (2) 2 mM experimental compound solutions. Cell‐free growth medium was included as a blank. The treated plates were incubated for 48 hours.
To initiate the resazurin assay, 50 μL of sterile‐filtered resazurin sodium salt (Sigma Aldrich) solution (0.01 % in phosphate‐buffered saline (PBS)) was added to the prepared plates and then incubated for 2 hours. A Thermofisher Scientific's GO Multiscan plate reader was used to measure the absorbance at 570 and 600 nm. SkanIt 4.0 Research Edition software was used to perform the data analysis for every biological replicate. After subtracting background absorbance (600 nm) from the 570 nm absorbance data, the mean absorbance was computed, and the percentage of viable cells was estimated using the formula below: Cellviability%=(ΔAbssample-ΔAbsblank)/(ΔAbsnegcontrol-ΔAbsblank)X100
GraphPad Prism 5 was used to calculate the IC50 and Z‐score for each compound's biological replicate. The mean IC50 of the biological replicates and standard deviation (SD) was calculated to determine the final IC50 of each compound.

In data set [1] the test system is Leishmania donovani (strain 9515 (MHOM/IN/95/9515)) promastigotes. Put plainly: Antipromastigote resazurin assay. The class given is cell-based. As to conditions: for IC50 / inhibition at 10 µM: Leishmania donovani; for IC50: promastigotes, maximum concentration 2 mM, ±standard deviation, read-out: L. donovani 9515 antipromastigote IC50; for inhibition at 10 µM: L. donovani strain 9515 promastigotes, read-out: Antipromastigote growth inhibition (%). The protocol:
The antipromastigote activity of synthesised compounds was evaluated using a modified method of the resazurin assay[45, 46] against two Leishmania strains.
Leishmania donovani (strain 9515 (MHOM/IN/95/9515)) and L. major (strain NIH S (MHOM/SN/74/Seidman)) promastigotes were cultured in M199 with Hank's salts and 0.68 mM L‐glutamine (Sigma Aldrich) supplemented with 0.0005 % hemin, 0.0001 % biotin, 0.1 mM adenine (Sigma Aldrich), 10 % fetal bovine serum, 50 U/mL Penicillin/Streptomycin solution, 4.2 mM sodium bicarbonate and 25 mM Hepes buffer. The promastigotes were maintained at an adjusted pH of 7.3–7.4 growth medium at 26 °C. […] Amphothericin B (10 μM) served as the standard antileishmanial drug and parasite‐free growth medium was included as the blank. The plates were incubated for 48 hours at 26 °C in humidified environment.
Following the initial incubation, 50 μL of resazurin solution (0.01 % in PBS) was added to each well and the plates underwent further incubation at 26 °C for 24 hours in the dark. A Thermofisher Scientific's GO Multiscan plate reader was used to measure absorbance at 570 nm and 600 nm. SkanIt 4.0 Research Edition software was used to perform the data analysis for every biological replicate. Background absorbance (600 nm) was subtracted from the 570 nm absorbance data and the mean absorbance was computed. The cell viability and data analysis were performed as indicated in the cytotoxicity assay.
In general terms: Alamar Blue is a resazurin reagent that responds to reducing activity.

Data set [2] deals with L. major (strain NIH S (MHOM/SN/74/Seidman)) promastigotes. Put plainly: Antipromastigote resazurin assay. The format is cell-based, Leishmania major. The settings on record: for IC50 / inhibition at 10 µM: Leishmania major; for IC50: promastigotes, maximum concentration 2 mM, ±standard deviation; for inhibition at 10 µM: L. major strain IR‐173 (as headed) promastigotes, read-out: Antipromastigote growth inhibition (%).

For data set [3], the system named is L. donovani strain 9515 intramacrophage amastigotes. Nature of the data set: Intramacrophage antileishmanial growth inhibition assay. As to conditions: Leishmania donovani, read-out: Anti‐amastigote growth inhibition (%). The format is cell-based. As for the experimental part: (§1) A modified resazurin assay[47, 48] and the two Leishmania strains were also used to assess the efficacy of synthesised compounds against intramacrophage parasites.
(§2) Human monocytic leukemia (THP‐1) cells were cultured in RPMI 1640 medium with L‐glutamine (Sigma Aldrich) supplemented with, 1 % penicillin/streptomycin solution (Lonza), 10 % fetal bovine serum (FBS; Thermofisher Scientific) and 2 g/L sodium bicarbonate (Sigma Aldrich). The cells were maintained in a humidified environment at 37 °C and 5 % CO2.
(§3) For the intramacrophage assay, a 500 000 cells/mL THP‐1 cell suspension was prepared, 25 ng/mL phorbol 12‐myristate 13‐acetate (PMA) added and the suspension seeded in 96 well plates (Nunc, Thermofisher Scientific) at 200 μL/well. Cell‐free growth medium was included as the blank. The plates were incubated for 48 hours in a humidified environment at 37 °C and 5 % CO2 to encourage the differentiation of the suspended cells to adherent macrophages.
(§4) To eliminate non‐adherent cells after the PMA treatment, the plates were carefully washed once with warm PBS. Then, a premade promastigote suspension ([…]) was added. The suspension consisted of stationary phase promastigotes in THP‐1 cell growth medium, with a multiplicity of infection (MOI) of 30 : 1. Parasite‐free medium was also added to selected THP‐1 cell‐containing wells to serve as parasite blank. The plates were thoroughly rinsed four times with warm PBS to get rid of extracellular parasites after being cultured for 24 hours to encourage macrophage infection. The cells were then treated with 160 μL of growth medium and 40 μL of either solvent (parasite blank and negative control with parasites) or 40 μL of compound solutions. For a dual‐point activity screening, 10 μM and 2 mM of compound were prepared in separate plates. Amphothericin B (10 μM) served as the standard antileishmanial drug. The plates were incubated for 72 hours in a humidified environment at 37 °C and 5 % CO2.
(§5) For the plates treated with 10 μM of compound, any serum and extracellular promastigotes that remained were carefully removed from the wells by rinsing with warm PBS. The wells were then treated with 20 μL of 0.05 % sodium dodecyl sulphate (SDS; Sigma Aldrich) in PBS for 30 sec to lyse the macrophages. Lysis was terminated with the addition of 180 μL promastigote growth medium with 10 % FBS. For the resazurin assay, 10 μL of resazurin solution (0.025 % in PBS) was added to each well and the plates were further incubated at 37 °C in for 72 hours in the dark to measure amastigote recovery to proliferative promastigotes.
(§6) A Thermofisher Scientific's GO Multiscan plate reader was used to measure absorbance at 570 nm and 600 nm. SkanIt 4.0 Research Edition software was used to perform the data analysis for every biological replicate. Background absorbance (600 nm) was subtracted from the 570 nm absorbance data and the mean absorbance was computed.
(§7) For the activity screening, the following formula was used to determine growth inhibition percentage: Growthinhibition%=100-[(ΔAbssample-ΔAbsblank)/(ΔAbsnegcontrol-ΔAbsblank)X100]

Data set [4] concerns L. major intramacrophage amastigotes. The description is as above. As to conditions: for inhibition at 10 µM: Leishmania major, L. major strain IR‐173 (as headed) intramacrophage amastigotes, read-out: Anti‐amastigote growth inhibition (%); for host cell and parasite death in L. major anti‐amastigote screening: 2 mM of compound, L. major only. The format is cell-based, Leishmania major. As for the experimental part:
as §1, §2, §3, §4, §5
Any remaining extracellular promastigotes were afterwards carefully removed from the wells by rinsing with warm PBS. The wells were then treated with 50 μL of resazurin solution (0.01 % in PBS) and the plates were further incubated at 37 °C for 4 hours in the dark to assess host cell viability.
as §6, §7

Data set [5] has as its system L. donovani 1S promastigotes. Further details: method as in PMID 33491807. The settings on record: read-out: L. donovani 1S promas. IC50; cited from earlier work.
The next data set concerns Vero. Further details: method as in PMID 33491807. The settings on record: cited from earlier work.
For data set [6], the system named is L. donovani strain 1S amastigote. Further details: method as in PMID 33491807. The settings on record: previous study; cited from earlier work.

`O=S1(=O)NC=Nc2ccccc21` [Compound 1, 2H‐Benzo[e][1,2,4]thiadiazine‐1,1‐dioxide]: the melting point (commonly the temperature, or range, at which the solid turns liquid) lay within 223 to 226 °C. In addition, the IC50 (as a rule, the concentration at which inhibition is half-maximal) with Vero cells worked out at 323 ± 215 µM. Also, in [1], the “SI1: Selectivity index=IC50 Vero/L. donovani 9515 antipromastigote IC50” value is 0.53; the IC50 amounted to 612 ± 30.9 µM; the inhibition – broadly, the percentage by which the read-out fell short of the control – at 10 µM stood at 10%. Moreover, in data set [2], the “SI2: Selectivity index=IC50 Vero/L. major antipromastigote IC50” value came to 0.38, half-maximal inhibition (IC50) was put at 861 ± 46.5 µM and the inhibition at 10 µM stood at 0%. Moreover, the inhibition at 10 µM in [3] stood at 0%. Further, in data set [4], the inhibition at 10 µM is 0%. Moreover, the 50% inhibitory concentration (IC50) in data set [5] is < 10 µM and 7.33 µM. Further, the half-inhibitory concentration (IC50) in the data set with Vero is more than 100 µM. Besides, in data set [6], the “activity against L. donovani strain 1S amastigote” value is reported as “sub‐micromolar activity”.

Consider `O=S1(=O)c2ccccc2N=CN1CCO` [Compound 2, 2‐(2‐Hydroxyethyl)‐2H‐benzo[e][1,2,4]thiadiazine‐1,1‐dioxide], for which the melting point fell in the range of 167 to 170 °C. Also, the IC50 with Vero cells was 752 ± 174 µM. In [1], the “SI1: Selectivity index=IC50 Vero/L. donovani 9515 antipromastigote IC50” value is reported as 0.90, the IC50 came to 839 ± 41.9 µM and the inhibition at 10 µM was found to be 0%. In data set [2], the “SI2: Selectivity index=IC50 Vero/L. major antipromastigote IC50” value turned out to be 0.70 and the inhibition at 10 µM came out at 0%. Further, in [3], the inhibition at 10 µM came out at 0%. Moreover, the inhibition at 10 µM in data set [4] is 0%.

`O=S1(=O)c2ccccc2N=CN1CCOc1ccc(Br)cc1` [Compound 10, 2‐[2‐(4‐Bromophenoxy)ethyl]‐2H‐benzo[e][1,2,4]thiadiazine‐1,1‐dioxide] returned a melting point of 217 to 220 °C. The IC50 in the data set with Vero cells amounted to 663 ± 24 µM. In addition, in data set [1], the “SI1: Selectivity index=IC50 Vero/L. donovani 9515 antipromastigote IC50” value is given as 0.73, the IC50 is 906 ± 62.1 µM and the inhibition at 10 µM was 0%. In addition, in data set [2], the “SI2: Selectivity index=IC50 Vero/L. major antipromastigote IC50” value was 0.47 and the inhibition at 10 µM came out at 0%. Also, in [3], the inhibition at 10 µM stood at 0%. Moreover, the inhibition at 10 µM in [4] stood at 0%.

`O=S1(=O)c2ccccc2N=CN1CCOc1ccc(Cl)cc1` [Compound 11, 2‐[2‐(4‐Chlorophenoxy)ethyl]‐2H‐benzo[e][1,2,4]thiadiazine‐1,1‐dioxide]: the IC50 with Vero cells was determined as 747 ± 188 µM. In [1], the “SI1: Selectivity index=IC50 Vero/L. donovani 9515 antipromastigote IC50” value was 2.57, the IC50 was 290 ± 21.4 µM and the inhibition at 10 µM amounted to 3%. In addition, in data set [2], the “SI2: Selectivity index=IC50 Vero/L. major antipromastigote IC50” value amounted to 2.49, it took 300 ± 3.68 µM to reach half-maximal inhibition (IC50) and the inhibition at 10 µM turned out to be 0%. Moreover, the inhibition at 10 µM in data set [3] came out at 0%. Besides, in data set [4], the “host cell and parasite death in L. major anti‐amastigote screening” value (from here on “host cell and parasite death”) is “killed both parasite and host cell”; the inhibition at 10 µM came to 0%.

The compound `O=[N+]([O-])c1ccc(OCCN2C=Nc3ccccc3S2(=O)=O)cc1` [Compound 12, 2‐[2‐(4‐Nitrophenoxy)ethyl]‐2H‐benzo[e][1,2,4]thiadiazine‐1,1‐dioxide] displayed an IC50 in the data set with Vero cells of 667 ± 58 µM. In data set [1], the “SI1: Selectivity index=IC50 Vero/L. donovani 9515 antipromastigote IC50” value came out at 1.62, the IC50 worked out at 411 ± 27.9 µM and the inhibition at 10 µM stood at 9%. Moreover, in data set [2], the “SI2: Selectivity index=IC50 Vero/L. major antipromastigote IC50” value is listed as 0.85, the IC50 was 783 ± 408 µM and the inhibition at 10 µM came to 0%. The inhibition at 10 µM in [3] came out at 0%. Also, in data set [4], the “host cell and parasite death” value is “killed both parasite and host cell”; the inhibition at 10 µM came to 0%.

`C=CCOCCN1C=Nc2ccccc2S1(=O)=O` [Compound 13, 2‐[2‐(Allyloxy)ethyl]‐2H‐benzo[e][1,2,4]thiadiazine‐1,1‐dioxide]: the 50% inhibitory concentration (IC50) in the data set with Vero cells turned out to be 531 ± 15.7 µM; in data set [1], 360 ± 12.5 µM; in data set [2] it was 455 ± 9.55 µM. Also, the inhibition at 10 µM in [1] stood at 15%; in [2], 0%; in data set [3], 0%; in data set [4] it was 0%. The “SI2: Selectivity index=IC50 Vero/L. major antipromastigote IC50” value in [2] worked out at 1.17. In data set [4], the “host cell and parasite death” value was “killed both parasite and host cell”.

`C#CCN1C=Nc2ccccc2S1(=O)=O` [Compound 14, 2‐(Prop‐2‐yn‐1‐yl)‐2H‐benzo[e][1,2,4]thiadiazine‐1,1‐dioxide] yielded a 50% inhibitory concentration (IC50) in the data set with Vero cells of 535 ± 21.8 µM. In [1], the “SI1: Selectivity index=IC50 Vero/L. donovani 9515 antipromastigote IC50” value was 2.25, the IC50 came out at 238 ± 14.5 µM and the inhibition at 10 µM turned out to be 1%. In addition, in [2], the “SI2: Selectivity index=IC50 Vero/L. major antipromastigote IC50” value is recorded as 2.89, the IC50 amounted to 185 ± 22.1 µM and the inhibition at 10 µM is 23%. Besides, the inhibition at 10 µM in [3] stood at 0%. In [4], the “host cell and parasite death” value was “killed both parasite and host cell”; the inhibition at 10 µM was determined as 0%.
